From patent publication US20170354148A1, “SAFENED HERBICIDAL COMPOSITIONS CONTAINING HALAUXIFEN AND METHODS OF USE THEREOF IN BRASSICA SPECIES” (Dow AgroSciences LLC, priority 2016, published 2017) come the findings set out here.

Each structure is given as a SMILES string.

Series [1] deals with Aparima Gold swede (Brassica sp., BRSSS). In words: Example 1 pot trials, postemergence crop safety, visual phytotoxicity.
For series [2] the test system is unchanged. The experiment in a line: Example 2 field trials (Canterbury, New Zealand), postemergence crop safety, visual phytotoxicity.
The subject of series [3] is Roundup Ready® canola (Brassica napus, RR-BRSNN). As to conditions: in vivo.
Series [4] has as its system rutabaga (Brassica napus var. napobrassica, BRSNA). As to conditions: in vivo.
Series [5] concerns winter oilseed rape (Brassica napus, BRSNW). The conditions noted are these: in vivo.
Series [6] relates to kale/Chinese kale (Brassica alboglabra, BRSAG). The conditions noted are these: in vivo.
The subject of series [7] is Nexera™ canola (Brassica napus, BRSNN-NEX). As to conditions: in vivo.
Series [8] has as its system turnip or Polish canola (Brassica rapa, BRSRR). As to conditions: in vivo.

Take `O=C(O)c1nc(Cl)ccc1Cl` [Clopyralid-TIPA, (2RS,2′RS,2″RS)-tris(2-hydroxypropyl)ammonium 3,6-dichloropyridine-2-carboxylate]: the “Mean % Visual Injury” value in series [1] (3DAA1, 90 g ae/ha) came out at 2.2%; in series [1] (7DAA1, 90 g ae/ha), 0.4%; in series [1] (15DAA1, 90 g ae/ha), 0.0%; in series [1] (28DAA1, 90 g ae/ha) it was 0.0%; in series [2] (22DAA1, 90 g ae/ha) it was 0.5%; in series [2] (22DAA1, 180 g ae/ha), 0.5%. In addition, the “Mean % Visual Injury” value in series [2] (28DAA1, 45 g ae/ha) came out at 2.8%; in series [2] (28DAA1, 90 g ae/ha), 4.5%; in series [2] (28DAA1, 180 g ae/ha), 3.0%. The “Mean % Visual Growth Inhibition” value in series [2] (22DAA1, 45 g ae/ha) was 2.0%; in series [2] (22DAA1, 90 g ae/ha), 8.0%; in series [2] (22DAA1, 180 g ae/ha) it was 7.0%; in series [2] (28DAA1, 45 g ae/ha), 2.5%; in series [2] (28DAA1, 90 g ae/ha), 5.0%; in series [2] (56DAA1, 45 g ae/ha), 6.0%. The “Mean % Visual Growth Inhibition” value in series [2] (56DAA1, 90 g ae/ha) came to 2.0%; in series [2] (56DAA1, 180 g ae/ha), 4.0%.
In the case of `NCCO.O=C(O)c1nc(Cl)ccc1Cl` [Clopyralidolamine], the “% Visual Injury Obs” value in series [3], in series [4], in series [5], in series [6], in series [7] and in series [8] was 0% in each case.
On to `CCCCCC(C)OC(=O)COc1ccc(Cl)c2cccnc12` (centres unmarked) [Cloquintocet-mexyl, 1-methylhexyl (5-chloroquinolin-8-yloxy)acetate], for which the “Percent (%) Visual Injury RR-BRSNN Obs” value in series [3] is given as 0%. Besides, the “Percent (%) Visual Injury BRSNA Obs” value in series [4] is listed as 0%. In addition, in series [5], the “Percent (%) Visual Injury BRSNW Obs” value was found to be 0%. Moreover, the “Percent (%) Visual Injury BRSAG Obs” value in series [6] is reported as 0%. The “Percent (%) Visual Injury BRSNN-NEX Obs” value in series [7] is reported as 0%. Further, the “Percent (%) Visual Injury BRSRR Obs” value in series [8] is 0%.
